Reference: patent US7786097B2, “Tricyclic compounds, compositions and methods” (Pfizer Inc., priority 2007, dated 2010)
Read-outs that look alike come from different tables or passages of the source.

What was measured:
[1] = Oral dosing in portal vein-cannulated rats, portal vein plasma; type: in vivo; conditions: oral dosing of Example 2 (30 and 200 mg/kg), four-hour time period
Serum osteocalcin = Serum osteocalcin suppression, 28-day repeat dose mouse model; type: in vivo, Swiss Webster female mice; conditions: mice
Protocol: The compounds were weighed and suspended in a vehicle of 0.5% methylcellulose/0.025% tween 20 (Sigma-Aldrich, St. Louis, Mo.). Compound suspensions were homogenized using a Polytron PT-3100 tissue homogenizer to create a very fine suspension and were then sonicated for 10 minutes using a water bath sonicator. Aliquots of each suspension were made for daily dosing at 0.2 ml/dose. Swiss Webster female mice, 10-12 weeks old, 28-29 grams, (Taconic, Germantown, N.Y.) were used in accordance with the guidelines of the Institutional Animal Care and Use Committee and in accordance with NIH guidelines on laboratory animal welfare. Mice were acclimated in the Pfizer animal facility for three to seven days prior to being utilized in a study. […] Each treatment group contained 5-10 mice. To establish a dosing regimen for the studies, a pilot pharmacodynamic time course experiment was conducted to quantify TNFα repression after a single ED80 dose.
Body weights were measured on the first and last day of each experiment. Blood samples were obtained after three weeks of dosing for a steady-state pharmacokinetic (PK) analysis. To assess compound effects on LPS-induced TNFα, all mice received an intraperitoneal injection of LPS (Salmonella typhosa, L-7895; Sigma-Aldrich, St. Louis) 2.5 hr after the last dose on day 28. Mice were sacrificed 90 minutes after LPS administration. Serum samples were quantified for osteocalcin and TNFα using the multiplex assays (Linco Research, Inc, St. Charles, Mo.; Luminex 100, Austin, Tex.). Samples were diluted 1:20 and the assay was run according to manufacturer's instructions. The osteocalcin standard was purchased separately (Biomedical Technologies Inc., Stoughton, Mass.). Mice were fasted for 4 hours before serum was collected for TNFα, and osteocalcin levels. For each experiment, outliers were detected by calculating the number of standard deviations from the mean of the group. If the value being examined was more than 2.5 standard deviations from the mean, it was excluded from the rest of the calculations.
The individual mouse percent inhibition values were fit to a four-parameter logistic model using the dose mean for each group.
ED50 and ED80 values were obtained for the various endpoints using a four-parameter logistic fit. For compounds which were tested multiple times, ED50 and ED80 values were obtained using four-parameter logistic fits of the combined data from multiple experiments.

[2] = test system: Cortical bone formation rate (BFR); experiment: Cortical bone histomorphometry, bone formation rate (BFR); type: in vivo; conditions: AUC 0-4 hr, mice
Protocol: During the in-life portion of each study, mice received two intraperitoneal (i.p.) injections (20 mg/kg, […]) of calcein (C-0875; Sigma-Aldrich, St. Louis, Mo.) on days 1 and 26 for bone histomorphometry measurements. Calcein incorporates into the bone mineral and allows measurement of bone formation rate. Calcein was dissolved in 2% sodium bicarbonate. During the tissue harvest, the left tibiae were excised and cleaned for cortical histomorphometry measurements. After all skin and muscle were removed, tibiae were placed in 70% ethanol 4° C.) in the dark for a minimum of 24 hours.
Ground transverse sections were used for histomorphometric analysis of cortical bone. Bones were sectioned using a low-speed saw (Isomet, Buehler, Lake Bluff, Ill.) equipped with a diamond wafer blade. The end of each tibia was removed proximal to tibia-fibula synostosis and a […] cross-section was cut. Using a roughened glass plate and a cork, sections were ground to […] until transparent and all labels were distinguishable under a fluorescent microscope. Sections were dehydrated using the following solutions for a minimum of two minutes each: 1) 70% ethanol, 2) 95% ethanol, 3) 100% ethanol, 4) 50/50 ethanol/xylene, and 5) xylene (twice) (#534056; Sigma-Aldrich, St. Louis, Mo.). Sections were mounted using Eukitt Quick Mounting Medium (#03989, Sigma-Aldrich, St. Louis, Mo.) after which coverslip was applied. Using the Osteomeasure Bone Analysis Program (Osteometrics, Inc., Decatur, Ga.), bone formation rate was calculated by tracing the 1st and […] fluorescent labels and the inner and outer perimeter of the bone. Bone formation rate was calculated by the following equation: (Inter-label width/Label interval)*(Labeled perimeter/Bone perimeter). At least five samples were measured from each treatment group in each study.

[3] = test system: Mouse Collagen-Induced Arthritis (mCIA); experiment: Therapeutic mouse collagen-induced arthritis (mCIA) model; type: in vivo, Male DBA/J mice; conditions: Mus musculus; mice, dosing day 34 through day 49; read-out: Therapeutic mCIA (ED80 dose)
Text: Mouse Collagen-induced arthritis is a commonly used chronic, preclinical model of rheumatoid arthritis in which joint swelling and bone destruction occur following immunization with type II collagen. Reduction of disease incidence and severity has been shown previously to be predictive of disease-modification and signs and symptoms mitigation, respectively, in a clinical setting.
In the therapeutic mCIA model, induction of disease incidence and severity was synchronized via LPS stimulation. Male DBA/J mice were immunized with 100 ug of bovine type II collagen (bCII) on day 0. All mice received an intraperitoneal injection of 20 μg of LPS on day 28 and disease was allowed to develop through day 34. At day 34, all mice had disease (incidence=100%) with an average severity score of seven. Dosing of compounds was initiated in the therapeutic mode on day 34 and continued through day 49. Different treatments were compared by measuring the decrease in incidence (i.e., resolution of disease) and the decrease in severity of paw swelling over time.

[4] = test system: house dust mite-induced BAL inflammatory cell influx; experiment: House dust mite model of asthma, BAL inflammatory cell influx; type: in vivo, Mice; conditions: 0.1, 1 and 10 mg/kg, p.o., b.i.d.
[5] = test system: IL-6 levels in Human A549 lung epithelial cells; experiment: IL-1β-stimulated IL-6 in A549 cells; type: cell-based; conditions: additional results (footnote a)
Protocol: IL-6 IC50 and % Inhibition
Human A549 lung epithelial cells (American Type Culture Collection, Rockville, Md.) were cultured in Kaighn's F-12K medium with penicillin-streptomycin (10 U/mL) and 10% heat-inactivated fetal bovine serum (all from Invitrogen, Grand Island, N.Y.). A549 cells were plated at a density of 30,000 cells/well in 96-well plates and incubated overnight at 37° C. and with 5% CO2. The cells were serum-starved by replacing the growth medium with serum-free Kaighn's F-12K medium with penicillin-streptomycin (10 U/mL) and, again, incubating overnight at 37° C. and with 5% CO2. On the third day, the medium was replaced with fresh serum-free medium and the cells were incubated with or without compound (vehicle was DMSO at 0.1% maximum concentration) for approximately 1 hour and then stimulated with 1 ng/mL recombinant human IL-1β (R&D Systems, Minneapolis, Minn.) for 20 hours at 37° C. and with 5% CO2. Cell supernatants were collected for determination of IL-6 levels using MSD (Meso Scale Discovery, Gaithersburg, Md.) 96-well Single Spot plates as per the manufacturer's instructions. Plates were read with an MSD Sector Imager 6000. […] Vehicle was used to define the 0% inhibition control. Percent inhibition for each compound concentration, relative to these controls, was calculated using Excel (Microsoft, Redmond, Wash.). […]

[6] = target: T1, full-length glucocorticoid (GR) protein (Homo sapiens, UniProt P04150); experiment: Glucocorticoid receptor fluorescence polarization ligand binding (GRFP) assay
T1 construct: purchased Invitrogen
T1 sequence (P04150 1-777): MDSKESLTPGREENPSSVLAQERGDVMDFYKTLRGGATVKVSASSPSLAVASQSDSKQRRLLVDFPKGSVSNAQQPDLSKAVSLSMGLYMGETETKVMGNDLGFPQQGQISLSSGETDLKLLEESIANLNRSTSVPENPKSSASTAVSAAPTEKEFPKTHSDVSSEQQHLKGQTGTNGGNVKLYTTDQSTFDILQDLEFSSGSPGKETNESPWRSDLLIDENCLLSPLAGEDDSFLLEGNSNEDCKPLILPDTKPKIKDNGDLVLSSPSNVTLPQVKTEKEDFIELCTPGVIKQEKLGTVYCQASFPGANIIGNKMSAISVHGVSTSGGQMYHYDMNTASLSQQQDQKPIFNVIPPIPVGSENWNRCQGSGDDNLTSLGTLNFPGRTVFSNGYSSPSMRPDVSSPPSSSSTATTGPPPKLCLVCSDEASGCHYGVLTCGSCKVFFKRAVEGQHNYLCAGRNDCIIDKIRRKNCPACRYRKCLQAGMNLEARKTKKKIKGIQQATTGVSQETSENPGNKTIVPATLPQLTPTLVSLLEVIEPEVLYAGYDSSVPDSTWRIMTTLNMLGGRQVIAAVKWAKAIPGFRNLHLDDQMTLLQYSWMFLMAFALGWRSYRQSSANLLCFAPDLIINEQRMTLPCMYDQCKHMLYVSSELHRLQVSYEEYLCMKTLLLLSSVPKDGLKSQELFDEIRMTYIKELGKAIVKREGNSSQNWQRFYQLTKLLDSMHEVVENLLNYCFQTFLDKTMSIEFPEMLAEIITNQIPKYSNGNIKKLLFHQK
Text: GRFP: Glucocorticoid Receptor Binding
The glucocorticoid receptor fluorescence polarization ligand binding (GRFP) assay is used to evaluate direct binding of testing compounds to full-length glucocorticoid (GR) protein. Reagents for this assay are purchased from Invitrogen in a test kit. A fluorescent labeled GR ligand is used as a fluorescent tracer and test compounds compete with the fluorescent tracer for GR binding. The change in polarization value in the presence of test compounds is due to binding of test compounds to (GR) and is used to determine IC50 and relative binding affinity of test compounds for GR.

[7] = Solubility and intrinsic dissolution; type: physicochemical; conditions: compared with Example 1

| Structure (SMILES) | detection in portal vein plasma samples [1] | Serum osteocalcin EAUC50 (Serum osteocalcin; AUC 0-4 hr) [ng·h/mL] | Serum osteocalcin EAUC80 (Serum osteocalcin; AUC 0-4 hr) [ng·h/mL] | Osteocalcin Suppression (ED80 dose) (Serum osteocalcin; oral gavage 28 days, serum osteocalcin) [mg/kg] | Cortical bone formation rate (BFR) EAUC50 [2] [ng·h/mL] | ED80 [3] [mg/kg] | cell infiltration into BAL fluid [4] | IL-6 % Inhibition [5] [%] | IC50 [6] [nM] | IC50 ([6]; additional results (footnote a)) [nM] | solubility and intrinsic dissolution [7] |
| --- | --- | --- | --- | --- | --- | --- | --- | --- | --- | --- | --- |
| Cc1ncccc1NC(=O)c1ccc2c(c1)CC[C@@H]1C[C@@](O)(C(F)(F)F)CC[C@@]21Cc1ccccc1 [Example 1, (4βS,7R,8αR)-4β-benzyl-7-hydroxy-N-(2-methylpyridin-3-yl)-7-(trifluoromethyl)-4β,5,6,7,8,8α,9,10-octahydrophenanthrene-2-carboxamide] | detection of Example 1 | 1300 | 4200 | >10 | 270 | < 2 | mitigated cell infiltration into BAL fluid dose-dependently | – | – | – | – |
| Cc1ncccc1NC(=O)c1ccc2c(c1)CC[C@@H]1C[C@@](OP(=O)(O)O)(C(F)(F)F)CC[C@@]21Cc1ccccc1 [Example 2, (2R,4αS,10αR)-4α-benzyl-7-((2-methylpyridin-3-yl)carbamoyl)-2-(trifluoromethyl)-1,2,3,4,4α,9,10,10α-octahydrophenanthren-2-yl dihydrogen phosphate] | – | – | – | – | – | – | – | 80 | 79 | 42 | enhanced solubility and intrinsic dissolution |
